Structures can show the parent of a compound that is named as a salt.
How the values were obtained:
D2 -receptors = target: T1, D2 -receptors (Rattus norvegicus, UniProt P61169); assay: Affinity to D2-receptors (3H-spiroperidol binding); conditions: 3H-spiroperidol as ligand
T1 construct: from tissue
Description: Test 2 Affinity to D2 -receptors.
The binding assay is carried out essentially as described by Leysen et al. (Mol. Pharmacol. 21,301-14, 1982) using ^3 H-spiroperidol as ligand.

5-HT2 receptors = target: T2, 5-HT2 receptors (Rattus norvegicus, UniProt P14842); assay: Affinity to 5-HT2 receptors (3H-ketanserin binding); conditions: 3H-ketanserin as ligand
T2 construct: from tissue
Description: Test 1. Affinity to 5-HT2 receptors
The binding assay is carried out essentially as described by Leysen et al. (Mol. Pharmacol. 21,301-14, 1982) using ^3 H-ketanserin as ligand.

T1 sequence (P61169 whole entry): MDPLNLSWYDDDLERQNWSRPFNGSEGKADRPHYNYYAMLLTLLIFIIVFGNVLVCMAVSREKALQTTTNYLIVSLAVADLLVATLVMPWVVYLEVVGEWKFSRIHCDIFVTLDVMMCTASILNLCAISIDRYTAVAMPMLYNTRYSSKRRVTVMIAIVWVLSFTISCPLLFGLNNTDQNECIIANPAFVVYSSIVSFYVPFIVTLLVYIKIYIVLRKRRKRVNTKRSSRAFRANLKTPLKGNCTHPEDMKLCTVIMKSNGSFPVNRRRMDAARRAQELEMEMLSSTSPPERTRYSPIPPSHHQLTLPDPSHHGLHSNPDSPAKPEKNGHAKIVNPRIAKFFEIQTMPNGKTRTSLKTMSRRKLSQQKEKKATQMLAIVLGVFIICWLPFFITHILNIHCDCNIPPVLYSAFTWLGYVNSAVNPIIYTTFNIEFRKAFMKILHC
T2 sequence (P14842 whole entry): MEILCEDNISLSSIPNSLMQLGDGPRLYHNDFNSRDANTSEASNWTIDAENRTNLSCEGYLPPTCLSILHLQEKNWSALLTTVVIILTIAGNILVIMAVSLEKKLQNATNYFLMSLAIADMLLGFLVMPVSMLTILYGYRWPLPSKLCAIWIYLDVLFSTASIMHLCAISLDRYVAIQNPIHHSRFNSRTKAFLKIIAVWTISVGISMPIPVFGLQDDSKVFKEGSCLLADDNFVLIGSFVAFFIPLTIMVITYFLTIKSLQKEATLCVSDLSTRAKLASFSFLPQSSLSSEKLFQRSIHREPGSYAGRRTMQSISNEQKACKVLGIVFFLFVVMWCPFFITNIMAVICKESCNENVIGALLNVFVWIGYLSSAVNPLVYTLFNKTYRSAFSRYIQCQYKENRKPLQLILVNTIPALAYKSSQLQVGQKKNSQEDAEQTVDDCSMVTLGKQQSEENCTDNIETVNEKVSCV

Work on `CCNC(=O)N1CCN(CCOC(c2ccc(F)cc2)c2ccc(F)cc2)CC1` [3:1, 4-[2-[(4,4'Difluorobenzhydryl)oxy]-ethyl]-N-ethyl-1-piperazinecarboxamide hydrochloride] yielded a Ki (D2 -receptors) greater than 10000 nM and a Ki (5-HT2 receptors) of 60 nM.

Work on `CNC(=S)N1CCN(CCOC(c2ccc(F)cc2)c2ccc(F)cc2)CC1` [3:4, 4-[2-[(4,4'Difluorobenzhydryl)oxy]-ethyl]-N-methyl-1-piperazinethiocarboxamide hydrochloride] yielded a Ki (D2 -receptors) of 1600 nM and a Ki (5-HT2 receptors) of 20 nM.

In the case of `O=C(N1CCCC1)N1CCN(CCOC(c2ccc(F)cc2)c2ccc(F)cc2)CC1` [6:2, 1-[2-[(4,4'-Difluorobenzhydryl)oxy]ethyl]-4-(pyrrolidino-carbonyl)piperazine hydrochloride], the Ki (D2 -receptors) is reported as 1780 nM and the Ki (5-HT2 receptors) is reported as 15 nM.

With `CCNC(=O)N1CCN(CCCC(c2ccc(F)cc2)c2ccc(F)cc2)CC1` [Amperozide, reference compound] the Ki (D2 -receptors) was 540 nM and the Ki (5-HT2 receptors) was 17 nM.
